Data reported in patent publication US5608143A, “External regulation of gene expression” (E. I. Du Pont de Nemours and Company, priority 1994, dated 1997).

Legend:
5-2 gene (In 5-2 mRNA) = test: RNA slot blot / Northern analysis of 5-2 mRNA in roots of chemically treated corn; assay type: in vivo, corn (Missouri 17); design: In5-2 induction level: key to the marks not given beside the values
Method: Details of the techniques used to perform Example 3 are presented in Example 1. The cDNA library made from poly (A)+ RNA from the roots of N-(aminocarbonyl)-2-chlorobenzenesulfonamide-treated Missouri 17 corn plants described in Example 1 was analyzed for additional cDNA clones representing N-(aminocarbonyl)-2-chlorobenzenesulfonamide-induced mRNAs. […] This colony was designated In 5-2.
A small scale plasmid preparation was performed on an overnight culture of In 5-2 and an aliquot of the plasmid, designated pIn 5-2, was nick-translated as described earlier. Slot blot analysis was performed as described in Example 1 using nick-translated In 5-2 plasmid. […] This plasmid was designated pIn 5-2.
An aliquot of the small scale plasmid preparation of pIn 5-2 was digested to completion with PSt I and analyzed by agarose gel electrophoresis. The cDNA insert of the plasmid was excised as a single 420 bp Pst I fragment. Plasmid pin 5-2 was nick-translated and used to probe a Northern blot of RNA from both untreated and N-(aminocarbonyl)-2-chlorobenzenesulfonamide-treated roots.
The ability at various substituted benzenesulfonamides and related compound to induce the expression of the 2-1, 2-2, and 5-2 genes of Missouri 17 corn was evaluated. Corn seeds were germinated and grown hydroponically in 2 liter beakers as described in Example 1. On the tenth day, plants were transferred into fresh 0.5× Hoagland's solution containing the chemical to be tested. Root tissue was harvested from the plants after six hours of chemical treatment, quick-frozen by immersion in liquid N2, and stored at -80° C. until analyzed.
Details of the RNA isolation and slot blot analysis procedures are presented in Example 1. Total RNA was prepared from the root tissue of plants that had been treated with various chemicals using the previously described guanidine thiocyanate procedure. Replicate blots, each consisting of 2 μg of total RNA from tissues treated with each of the chemicals shown in tables 8 and 9, were prepared on nitrocellulose membranes using a Minifold II® Slot-blotter (Schleicher & Schuell) following the manufacturer's recommeneded procedure. Replicate blots were prehybridized and hybridized with cDNA probes made by nick translation of the purified cDNA inserts from plasmid pIn 2-1, pIn 2-2-3, and pIn 5-2. Slot blots were washed as described in Example 1 and exposed to Kodak X-OMAT XAR-5 film for 24 hours at -80° C. using a single Du Pont Lightning Plus intensifying screen. Film was developed using a Kodak X-OMAT film processor. The abililty of a chemical to induce the mRNA encoded by the three inducible genes was evaluated in one of two ways. Qualitative evaluation was performed by direct visual comparison of the autoradiographic signal intensities on the films for the hybridization of each probe to the different RNA samples. Quantitative evaluation was performed by cutting each slot containing hybridized RNA from the blot, immersing it in 2 ml of Du Pont ECONOFLUOR® scintillation cocktail and counting the radioactivity in each slot in a scintillation counter. The net amount of radioactivity hybridizing to N-(aminocarbonyl)-2-chlorobenzenesulfonamide-treated RNA after subtraction of radioactivity hybridizing to untreated RNA is presented in Table 15.

[1] = system: petunia P6.1 gene (and endogenous tobacco T2.1 gene); test: RNAse protection analysis of petunia P6.1 gene expression in transgenic tobacco roots and callus; assay type: in vivo, tobacco (SR1)
Method: Tobacco (SR1) was used as the recipient for transformation. In vitro grown leaf material was sliced into strips using a scalpel. The strips were dipped into Agrobacterium tumefaciens containing the construct P627 (bacterial concentration was 0.2 A550). Leaf pieces were placed on media containing MS major salts, MS minor salts, B5 vitamins, MS iron, 3% sucrose, 0.1 μg/l NAA, […], 0.7% TC agar, pH 5.8 and incubated for 2-3 days under growlights. Leaf material was removed and washed by placing in liquid culture medium containing […] and rotating gently for 3-4 hours. The leaf pieces were then placed on medium containing 100 μg/l carbinicillin and 300 mg/l kanamycin and transferred every 2 weeks. Shoots appeared after 2-8 weeks and were transferred to rooting medium (0.5× MS major salts, MS minor salts, iron, 1% sucrose, 0.8% agar, and 2 μM indolebutyric acid). Eight independent transformed plants were regenerated. […]
The inducibility of the P6.1 gene was also examined in callus tissue derived from transformed tobacco plants. […] The inducibility of both the introduced petunia P6 gene and the endogenous tobacco T2.1 gene by N-(aminocarbonyl)-2-chlorobenzanesulfonamide treatment was evaluated using the RNAse protection analysis as described above. […]

[2] = hydroponic treatment, corn roots

## NC(=O)NS(=O)(=O)c1ccccc1Cl
5-2 gene (In 5-2 mRNA); hydroponic application, 100 ppm
  In5-2 induction level: +++++
5-2 gene (In 5-2 mRNA); [2]
  hybridization of pIn 5-2 to root RNA (Northern blot): induced in root tissue by chemical treatment
  hybridization of pIn 5-2 to root RNA (slot blot): hybridizes strongly
[1]; callus from transformed tobacco, 100 mg/l, 6 and 20 hours
  expression of petunia P6 gene and endogenous tobacco T2.1 gene in callus (RNAse protection): strong expression of both genes was observed
[1]; transgenic tobacco (P627), hydroponic 200 mg/l, six hours
  inducible expression of the transferred petunia P6.1 gene in roots (RNAse protection): All eight transformants demonstrated inducible expression
